The values below come from patent US20230346853A1, “Probiotic Lyophilizate Reactivation Composition for Improving Intestinal Survivability and Adhesion of Probiotics” (COSMAX NBT, INC., priority 2021, published 2023).

Holding throughout (format): cell-based
The test system of data set [1] is Lactobacillus plantarum HAC03. Description: Zeta potential of lyophilized probiotics mixed with single ingredients (screening). The conditions noted are these: 0.1 M ingredient, rehydrated 1 min, pH 2.5. As to the method:
In this experimental example, Lactobacillus plantarum HAC03 (accession number: KCTC13242BP, the Korean Research Institute of Bioscience and Biotechnology) (hereinafter referred to as “HAC03”), which was described in Korean Patent Application No. 10-2017-0051574, was used as a probiotic strain.
Afterwards, 2 mL of pH 2.5 distilled water was added to each sample, the pH was re-adjusted using HCl 0.1 N, and 800 μl of the calibrated sample was loaded in DTS1080 cuvettes. The electrophoretic mobility was measured by the Zetaizer Nano ZEN 3600 (Malvern Panalytica, UK) after 2 minutes of equilibration and the Smoluchowski equation was used to convert the data into zetapotential values.
In this experiment, zeta potentials were measured at a pH of 2.5 in consideration of the highly acidic stomach environment, which is one of the initial hurdles that drastically reduce the survivability of the bacteria.

The subject of data set [2] is Lactobacillus casei Lc-11. Description: Bacterial adhesion to human enterocyte-like Caco-2/TC-7 cell line, lyophilized Lc-11. The conditions noted are these: 0.03 M, compared to the freeze-dried form. The text has this:
(§1) An examination was made to see whether the effect of reactivating lyophilized probiotics is applicable to various strains in this experimental example. In this regard, lyophilized Bifidobacterium longum Bl-05 (Dupont; hereinafter referred to as “Bl-05”), Lactobacillus plantarum Lp-115 (Dupont; hereinafter referred to as “Lp-115”), Lactobacillus casei Lc-11 (Dupont; hereinafter referred to as “Lc-11”), and 7-strain mixture (400B) (Dupont; hereinafter referred to as “MIX”) were reactivated with L-lysine and then assayed for their ability to adhere to the human enterocyte-like Caco-2/TC-7 cell line.
(§2) Lyophilizates of the three strains and the 7-strain mix were adjusted to 2×10^8 CFU/g and mixed with 0.03 M L-lysine or 0.03 M proline. The pellets were washed three time with 1× PBS and resuspended in 10 ml MEM cell culture media supplemented with 20% FBS, 2 mM glutamine, and 1% non-essential amino acids. A bacterial adhesion assay was performed according to the method of Botes et al. (Arch. Microbiol, 190 (2008), pp. 573-584) with some modifications. […] To quantify the number of bacteria attached to Caco-2/TC-7 cells, the samples were serially diluted, incubated on MRS agar plates for 48 hours (37° C.), and then counted to measure relative adhesion ratio (counts of attached bacteria in test groups to counts of attached bacteria in the control). […]

Data set [3] relates to Lactobacillus plantarum Lp-115. The data set can be described thus: Bacterial adhesion to human enterocyte-like Caco-2/TC-7 cell line, lyophilized Lp-115. The conditions noted are these: 0.03 M; L-lysine compared to the freeze-dried form, proline compared to L-lysine-reactivated.
Excerpt: as §1, §2

For data set [4], the system named is Lactobacillus plantarum HAC03. Description: in vitro Simulated Stomach Duodenum Passage (SSDP) probiotic survivability, lyophilized HAC03. The conditions noted are these: for viability at 100000 µM: Lactiplantibacillus plantarum. As to the method: The HAC03 strain was mixed with each of the single compositions and 1 mL of distilled water for 1 min. The compositions were formulated to have a final concentration of 0.1 M when dissolved in 1 ml of distilled water. Thereafter, 9 mL of distilled water adjusted to have a pH of 2.5 was added to each mixture. The pH was readjusted back to 2.5 in case of an increased pH due to the nature of some of the single ingredients (in order to not affect the survival of the probiotics). After adjusting the pH to 2.5, the tubes were incubated at 37° C. for 1 hour to apply the low-pH gastric stress condition. […] During the gastrointestinal tract assay, the samples were taken immediately, 1 hour, and […] after the incubation (t=0, 1, and 2). The probiotic survivability of each sample after gastric stress and bile stress was calculated by counting viable colonies.

A further data set has as its system 7-strain mixture (400B). Description: Bacterial adhesion to human enterocyte-like Caco-2/TC-7 cell line, lyophilized 7-strain mixture. The conditions noted are these: 0.03 M, compared to the freeze-dried form.
Excerpt: as §1, §2

The subject of data set [5] is Bifidobacterium longum Bl-05. The data set can be described thus: Bacterial adhesion to human enterocyte-like Caco-2/TC-7 cell line, lyophilized Bl-05. The following applies: 0.03 M, compared to the freeze-dried form.
Excerpt: as §1, §2

Read-outs that look alike come from different tables or passages of the source.

Regarding `Cl.NCCCC[C@H](N)C(=O)O` [L-Lysine hydrochloride, L-lysine hydrochloride], the “zeta potential of lyophilized HAC03 mixed with the ingredient (sign, FIG. 1)” value in data set [1] is on record as “negative zeta potentials”. Also, the “bacterial cell adhesion to Caco-2/TC-7 (FIGS. 2A and 2E), in words” value in data set [2] is listed as “significantly increased bacterial cell adhesion”. In addition, the “bacterial cell adhesion to Caco-2/TC-7 (FIGS. 2C and 2G), in words” value in data set [3] was “significantly increased bacterial cell adhesion”. Further, the viability at 100000 µM in data set [4] (HAC03, 1 h, pH 2.5, read-out: Stomach Survivability (%)) was 85.2%; in data set [4] (HAC03, 2 h, pH 6, read-out: Duodenum Survivability (%)), 48.4%. The “Stomach log CFU/mL” value in data set [4] (Table 1, 0.1 M ingredient, pH 2.5, 37° C., 1 hour) is reported as 7.87 ± 0.07 log CFU/mL. For the same molecule, the “Duodenum log CFU/mL” value in data set [4] (Table 1, 0.1 M ingredient, then bile salts (10% ox gall) and pH 6.0 synthetic duodenum juice, 2 hours) is 7.62 ± 0.09 log CFU/mL. Besides, the “intestinal survivability (acid resistance and bile resistance) in words” value in data set [4] (Table 1, compared to fresh bacteria / distilled water) was “increased in acid resistance and bile resistance”. Moreover, the “bacterial cell adhesion to Caco-2/TC-7 (FIGS. 2D and 2H), in words” value with 7-strain mixture (400B) is listed as “significantly increased bacterial cell adhesion”. Further, in data set [5], the “bacterial cell adhesion to Caco-2/TC-7 (FIGS. 2B and 2F), in words” value is given as “significantly increased bacterial cell adhesion”.
In the case of `O=C(O)[C@@H]1CCCN1` [proline, reference compound], the “zeta potential of lyophilized HAC03 mixed with the ingredient (sign, FIG. 1)” value in data set [1] is “positive zeta potentials”. The “bacterial cell adhesion to Caco-2/TC-7 (FIGS. 2A and 2E), in words” value in data set [2] is recorded as “remarkably lower in adhesion”. For the same molecule, the “bacterial cell adhesion to Caco-2/TC-7 (FIGS. 2C and 2G), in words” value in data set [3] is “remarkably lower in adhesion”. Also, in the data set with 7-strain mixture (400B), the “bacterial cell adhesion to Caco-2/TC-7 (FIGS. 2D and 2H), in words” value was “remarkably lower in adhesion”. The “bacterial cell adhesion to Caco-2/TC-7 (FIGS. 2B and 2F), in words” value in data set [5] was “remarkably lower in adhesion”.
